Results on two molecules are retold here after patent publication US20110212199A1, “AGENT FOR TREATING EYE DISEASES” (priority 2003, published 2011).

What all share (assay type): in vivo, human
The subject of one assay is corneal erosion (KSD). The experiment in a line: Example 36: corneal erosion. The settings on record: person; cyclodextrin-included eye drops of Example 32(1), 1 drop (50 μl) twice a day for 3 days.
Assay [1] concerns dry eye and ischemic optic neuropathy. In words: Example 61: dry eye and ischemic optic neuropathy. The source says:
It can be confirmed that administration of trans-resveratrol is effective for the treatment of dry eye and ischemic optic neuropathy.

Assay [2] has as its system open-angle glaucoma. In words: Example 39: open-angle glaucoma. The source says: It can be confirmed that it is effective for treatment of high tension glaucoma to lower intraocular pressure.
The test system of assay [3] is open-angle glaucoma. The experiment in a line: Example 41: open-angle glaucoma. The settings on record: person; 100 mg/l, 1 drop (50 μl) once a day for 14 days. The text has this:
It can be confirmed that administration of trans-resveratrol to eye is effective for treatment of high tension glaucoma.

The test system of assay [4] is cataract. The experiment in a line: Example 38: cataract. To be noted: 49 days.
For a further assay, the system named is myopia. The experiment in a line: Example 37: myopia. To be noted: 21 days; before 0.9.
Assay [5] deals with Posner-Schlossmans' Syndrome (glaucoma). In words: Example 40: Posner-Schlossmans' Syndrome. The settings on record: thereafter 100 mg/l eye drops, 1 drop (50 μl) once a day for 3 months. As to the method:
Thereafter, 1 drop (50 μl) of eye drops containing trans-resveratrol (100 mg/l) included in cyclodextrin prepared in Example 32(1) was administered once a day for 3 months, then no attack occurred for 3 months or more.

The next assay relates to glaucoma. In words: Example 58: glaucoma. To be noted: person; 100 mg/l, 1 drop (50 μl) twice a day for 3 months. The text has this:
It can be confirmed that administration of trans-resveratrol with eye drops is effective for the treatment of glaucoma.

Assay [6] concerns cataract. In words: Example 62: cataract. To be noted: person, right eye; 100 mg/l, 1 drop (50 μl) twice a day for 67 days.
Another assay relates to iridocyclitis. The experiment in a line: Example 60: iridocyclitis. The settings on record: person, right eye; 100 mg/l, 1 drop (50 μl) twice a day for 10 days. The source says:
It can be confirmed that administration of trans-resveratrol is effective for the treatment of iridocyclitis.

The next assay deals with normal tension glaucoma. The experiment in a line: Example 42: normal tension glaucoma. To be noted: person; 100 mg/l, 1 drop (50 μl) once a day for 33 days. The source says: It can be confirmed that administration of trans-resveratrol to eyes is effective for treatment of normal tension glaucoma.
Assay [7] relates to central retinal vein occlusion. In words: Example 57: central retinal vein occlusion. The settings on record: person; 100 mg/l, 1 drop (50 μl) twice a day for 112 days. The source says: It can be confirmed that administration of trans-resveratrol with eye drops is effective for the treatment of central retinal vein occlusion.
In assay [8] the test system is primary open angle glaucoma. In words: Example 56: primary open angle glaucoma. To be noted: person; 10 mg/l in 2-hydroxypropyl-β-cyclodextrin and γ-cyclodextrin, 1 drop (50 μl) twice a day for a half year. The source says:
It can be confirmed that administration of raloxifen with eye drops is effective for the treatment of primary open angle glaucoma.

Assay [9] deals with pigmentary retinal degeneration. In words: Example 45: pigmentary retinal degeneration. To be noted: person; 60 mg/l included in cyclodextrin, 1 drop (50 μl) twice a day for 3 months.

Take `Oc1ccc(/C=C/c2cc(O)cc(O)c2)cc1` [trans-resveratrol]: the corneal erosion symptom result in the assay with corneal erosion (KSD) is on record as “the symptom was lightened”. For the same molecule, in [1] (46 days), the ischemic optic neuropathy entry is “ischemic optic neuropath was improved”. In addition, the “lacrimation and dry eye” value in assay [1] (person, 100 mg/l, 1 drop (50 μl) twice a day for 46 days) is “lacrimation was increased, dry eye was cured”. Also, the “intraocular pressure ToS” value in the assay with open-angle glaucoma [2] (98 days, before 22) was 13 mmHg. Also, the “intraocular pressure ToD” value with open-angle glaucoma [2] (person, 100 mg/l, 1 drop (50 μl) twice a day for 98 days, before 21) is listed as 14 mmHG. The “visual field, left eye” value in the assay with open-angle glaucoma [3] was “visual field was improved”. Also, in the assay with cataract [4], the “cataract opacity, slit lamp microscope” value is listed as “cataract opacity was lightened”. For the same molecule, the “corrected visual acuity Vs” value in the assay with cataract [4] (before 1.2) was 1.5. Besides, in the assay on myopia, the “visual acuity Vs” value is listed as 1.2. Besides, the period without attack in assay [5] is at least 3 months. Besides, in the assay on glaucoma, the “visual fields by OCTOPUS 1-2-3 static perimeter” value was “the visual fields were improved”. The opacity of cataract entry with cataract [6] was “opacity of cataract was reduced”. In the assay with iridocyclitis, the iridocyclitis outcome was “iridocyclitis was cured”. Also, the visual fields result in the assay with normal tension glaucoma is recorded as “visual fields were improved”. Besides, the “chorioretinal hemorrhage, left eye” value in [7] is on record as “chorioretinal hemorrhage was disappeared”.
With `O=C(c1ccc(OCCN2CCCCC2)cc1)c1c(-c2ccc(O)cc2)sc2cc(O)ccc12` [raloxifene], the “visual fields by OCTOPUS 1-2-3 static perimeter” value in [8] is “the visual fields were improved”. The visual field result in assay [9] is reported as “visual field was improved”.
